{"source": "patent US9555137B2", "about": "“Uses of labeled HSP90 inhibitors” (Sloan-Kettering Institute for Cancer Research, priority 2011, dated 2017)", "key": {"[1]": {"experiment": "PU-H71 tumor concentrations in MDA-MB-468 tumor-bearing mice (PET-predicted, simulated, LC-MS/MS)", "conditions": "75 mg/kg 1× week"}, "[2]": {"system": "caspase-3,7", "experiment": "caspase 3,7 activation assay in AML cell lines", "assay_type": "cell-based", "conditions": "24 h", "protocol": "A ten-fold, in MOLM-13 and M0-91, and two-fold, in Kasumi-1 and SKNO-1, increase in caspase-3,7 activation was observed as early as 24 h. Essentially no live cells were detected for the M0-91 cell line after 48 h of HSP90 inhibitor treatment. In the most sensitive cells, MOLM-13 and M0-91, apoptosis was associated with downregulation of the anti-apoptotic molecule Bcl-xL.\nCells were plated and treated as described in the growth inhibition assay section. Following a 24 h or 48 h exposure of cells to Hsp90 inhibitors, 100 μL buffer containing 10 mM Hepes, pH 7.5, 2 mM EDTA, 0.1% CHAPS, 0.1 mg/mL PMSF, Complete Protease Inhibitor mix (#1697498; Roche), and the caspase substrate Z-DEVD-R110 (#R22120; Molecular Probes) at 25 μM was added to each well. Plates were placed on an orbital shaker to promote cell lysis and reaction. The fluorescence signal of each well was measured in an Analyst GT (Molecular Dev ices) microplate reader (excitation 485 nm; emission at 530 nm). The percentage increase in caspase-3,7 activity was calculated by comparison of the fluorescence reading obtained from treated versus control cells. All experimental data were analyzed using SOFTmax Pro 4.3.1 and plotted using Prism 4.0 (Graphpad Software Inc., San Diego, Calif.)."}, "[3]": {"system": "Raf-1, Akt", "experiment": "pharmacodynamic analysis of MDA-MB-468 tumors (Western blot)", "assay_type": "in vivo, mice", "conditions": "Mus musculus, MDA-MB-468, 24 h"}, "[4]": {"system": "MDA-MB-468 tumors", "experiment": "efficacy study in MDA-MB-468 xenografted tumors", "assay_type": "in vivo, mice", "conditions": "75 mg/kg, 1× week", "protocol": "Mice (n=5) bearing MDA-MB-468 tumors reaching a volume of 100-150 mm^3 were treated i.p. (i.p.) using different doses and schedules, as indicated. Tumor volume was determined by measurement with Vernier calipers, and tumor volume was calculated as the product of its length×width^2×0.4. Tumor volume was expressed on indicated days as the median tumor volume ±SD indicated for groups of mice. Percent (%) tumor growth inhibition values were measured on the final day of study for drug-treated compared with vehicle treated mice and are calculated as 100×{1−[(TreatedFinal day−TreatedDay 1)/(ControlFinal day−ControlDay 1)]}. Tumor regression values were determined by calculating the ratio of median tumor volumes at the time when treatment was initiated to median tumor volume on the final day of study for a given treatment group. Percent (%) tumor regression is 100×[1−(TreatedFinal day/TreatedDay 1)]."}, "[5]": {"system": "HSP90", "experiment": "131I-PU-H71 saturation binding in intact cancer cells", "assay_type": "cell-based", "description": "The solutions were shaken in an orbital shaker and after 1 hr the cells were isolated and washed with ice cold Tris-buffered saline using a Brandel cell harvester. […] To calculate the percentage of HSP90, cellular HSP90 expression was quantified by using standard curves created of recombinant HSP90 purified from HeLa cells (Stressgen#ADI-SPP-770)."}, "[6]": {"conditions": "mouse, in vivo"}, "[7]": {"target": "359 kinases", "experiment": "scanMAX kinase screen (Ambit)", "assay_type": "binding", "conditions": "10 μM"}, "[8]": {"system": "p-AKT, p-STAT5", "experiment": "pharmacodynamic study in M0-91 tumors xenografted in mice", "assay_type": "in vivo", "protocol": "We next analyzed the pharmacodynamic effects of HSP90 inhibition in both HEL and M0-91 tumors xenografted in mice. Unlike the cultured cells, the use of the in vivo model allows real-time monitoring of HSP90-dependent pathways inhibition.\nFour- to 6-week-old nu/nu athymic female mice were obtained from Taconic Farms. Experiments were carried out under an Institutional Animal Care and Use Committee-approved protocol, and institutional guidelines for the proper and humane use of animals in research were followed. HEL and M0-91 cells were subcutaneously implanted in the right flank of mice using a 20-gauge needle and allowed to grow. […] For this assay, tumors were allowed to reach 6-8 mm in diameter before treatment. […] Tumors were homogenized and proteins analyzed by western blot as described above."}, "[9]": {"system": "breast cancer tumor specimens", "experiment": "ex vivo sensitivity of breast cancer fresh tissue sections to PU-H71", "assay_type": "cell-based, human", "conditions": "TNBC resistant (PT#14)", "text": "From preliminary analyses we have learned that fresh tissue slicing provides a quick and more efficient ex vivo method for HSP90 inhibition evaluation than primary cell isolation. In addition, it preserves the cancer cells in the endogenous environment of the surrounding tissue. This is important since the interaction between stromal cells and tumor cells is known to play a major role in cancer growth and progression. In this method, the tissue (i.e. lesion) is placed in a plastic mold and embedded in 6% agarose. The agarose-embedded tissue is then mounted on the stage of the Vibratome that is submersed in a chilled reservoir (for tissue preservation) containing MEM with 1% penicillin/streptomycin. The tissue is then sliced using metal blades producing serial sections of the lesion that are 200 μm thick. Each section (minus the surrounding agarose-embedding media) is immediately placed in a 24-well tissue culture plate containing MEM with 1% penicillin/streptomycin. From a 5 mm×5 mm piece of tissue approximately 25 sections are produced. This allows for replicate analyses of tissue sections treated with a minimum of 4 doses of the HSP90 inhibitor and one with vehicle only. Replicates can be assayed by both IHC as well as viability assays (automatic plate reader or cytospin preparation) once tissue section undergoes enzymatic dissociation by brief exposure to dispase. […]"}, "[10]": {"experiment": "[124I]-PU-H71 PET in cancer patients, tumor exposure to PU-H71", "assay_type": "in vivo, human"}, "[11]": {"system": "MDA-MB-468 cells", "experiment": "apoptosis of MDA-MB-468 cells (Ethidium Bromide/Acridine Orange)", "assay_type": "cell-based, human", "conditions": "48 h", "text": "As noted in FIG. 40B, several tumors are more sensitive to HSP90 inhibition than predicted from the preliminary data generated on cell lines."}, "[12]": {"experiment": "in vivo", "conditions": "mouse"}, "[13]": {"system": "Raf-1, Akt", "experiment": "onco-client protein degradation in MDA-MB-468 cells (Western blot)", "assay_type": "cell-based", "conditions": "Homo sapiens, in vitro, 24 h"}}, "data": [{"smiles": "CC(C)NCCCn1c(Sc2cc3c(cc2I)OCO3)nc2c(N)ncnc21", "note": "[PU-H71]", "values": [{"measurement": "actual tumor concentration by LC-MS/MS", "setting": "[1]; 24 h after last dose", "result": "5.53±0.26"}, {"measurement": "actual tumor concentration by LC-MS/MS", "setting": "[1]; 96 h after last dose", "result": "3.09±1.40"}, {"measurement": "increase in caspase-3,7 activation", "setting": "[2]; Kasumi-1 and SKNO-1", "result": "two-fold"}, {"measurement": "increase in caspase-3,7 activation", "setting": "[2]; MOLM-13 and M0-91", "result": "ten-fold"}, {"measurement": "EC50", "setting": "[3]; read-out: EC50 Akt, tumor concentration by PET vs pharmacodynamic effect", "result": "90 ± 80", "unit": "nM"}, {"measurement": "EC50", "setting": "[3]; read-out: EC50 Raf-1, tumor concentration by PET vs pharmacodynamic effect", "result": "240 ± 30", "unit": "nM"}, {"measurement": "anti-tumor effect", "setting": "[4]", "result": "significant tumor growth inhibition"}, {"measurement": "fraction of total cellular HSP90 bound", "setting": "[5]; K562 and other established t(9;22)+ CML cell lines", "result": "10.3-23%"}, {"measurement": "fraction of total cellular HSP90 bound", "setting": "[5]; MDA-MB-468 cells", "result": "approximately 30%"}, {"measurement": "AUC tumor relative to AUC blood", "setting": "[6]", "result": 15, "unit": "fold"}, {"measurement": "area under the blood time-activity concentration curve", "setting": "[6]", "result": 0.78, "unit": "% ID/g-h"}, {"measurement": "area under the tumor time-activity concentration curve", "setting": "[6]", "result": 11.4, "unit": "% ID/g-h"}, {"measurement": "kinase hits", "setting": "[7]", "result": "Only SNARK (NUAK family SNF1-like kinase 2)"}, {"measurement": "duration of apoptosis after one dose", "setting": "[8]", "result": 96, "unit": "h"}, {"measurement": "apoptosis", "setting": "[9]", "result": "no apoptosis noted at any of the tested concentrations"}, {"measurement": "tumor AUC0-336h", "setting": "[10]; 10 mg/m^2 once a week for two weeks", "result": 54, "unit": "μM-h"}, {"measurement": "tumor exposure", "setting": "[10]; left lung, 80 mg/m2 2× week", "result": "above 760 uM-h"}, {"measurement": "cells undergoing apoptosis", "setting": "[11]; 0.5 μM", "result": "about 50%"}, {"measurement": "cells undergoing apoptosis", "setting": "[11]; about 5 μM", "result": "about 100%"}, {"measurement": "concentration at 24 h", "setting": "[12]; in vivo, 5 mg/kg", "result": 430, "unit": "nM"}, {"measurement": "concentration at 24 h", "setting": "[12]; tumor, 5 mg/kg", "result": 370, "unit": "nM"}, {"measurement": "concentration at 24 h", "setting": "[12]; tumor, 25 mg/kg", "result": 1830, "unit": "nM"}, {"measurement": "concentration at 24 h", "setting": "[12]; tumor, 50 mg/kg", "result": 3670, "unit": "nM"}, {"measurement": "concentration at 48 h", "setting": "[12]; tumor, 75 mg/kg", "result": "3500 ± 270", "unit": "nM"}, {"measurement": "concentration at 96 h", "setting": "[12]; tumor, 75 mg/kg", "result": "1290 ± 290", "unit": "nM"}, {"measurement": "concentration at 120 h", "setting": "[12]; tumor, 75 mg/kg", "result": "690 ± 250", "unit": "nM"}, {"measurement": "EC50", "setting": "[13]; read-out: EC50 Akt, onco-client protein degradation", "result": "150 ± 20", "unit": "nM"}, {"measurement": "EC50", "setting": "[13]; read-out: EC50 Raf-1, onco-client protein degradation", "result": "130 ± 20", "unit": "nM"}]}]}
